Patent publication US5045302A, “Ligands and cationic complexes thereof with technetium-99m” (priority 1988, dated 1991)

Experiment: Rat biodistribution of Tc-99m complexes

Blood (2 min p.i.)	Heart (2 min p.i.)	Heart/Blood Counts/Gram Ratio (2 min p.i.)	Heart/Liver Counts/Gram Ratio (2 min p.i.)	Liver (2 min p.i.)	Blood (60 min p.i.)	Heart (60 min p.i.)	Heart/Blood Counts/Gram Ratio (60 min p.i.)	Heart/Liver Counts/Gram Ratio (60 min p.i.)	Liver (60 min p.i.)	SMILES
11.0 % Injected dose/organ	0.54 % Injected dose/organ	0.72	0.41	19.0 % Injected dose/organ	1.69 % Injected dose/organ	0.42 % Injected dose/organ	4.0	0.46	12.0 % Injected dose/organ	CCOCCOCCP(CCOCCOCC)CCP(CCOCCOCC)CCOCCOCC [Compound 8]
40.5 % Injected dose/organ	0.43 % Injected dose/organ	0.17	0.16	35.2 % Injected dose/organ	7.59 % Injected dose/organ	0.14 % Injected dose/organ	0.3	0.04	48.8 % Injected dose/organ	FC(F)(F)COCCCP(CCCOCC(F)(F)F)CCP(CCCOCC(F)(F)F)CCCOCC(F)(F)F [Compound 10]
9.45 % Injected dose/organ	0.31 % Injected dose/organ	1.27	0.57	20.3 % Injected dose/organ	1.93 % Injected dose/organ	0.62 % Injected dose/organ	5.70	0.75	12.0 % Injected dose/organ	COC(C)CP(CCP(CC(C)OC)CC(C)OC)CC(C)OC (centres unmarked) [Compound 11]

More lines, now with the values behind:

SMILES	Blood (2 min p.i.)	Heart (2 min p.i.)	Heart/Blood Counts/Gram Ratio (2 min p.i.)	Heart/Liver Counts/Gram Ratio (2 min p.i.)	Liver (2 min p.i.)	Blood (60 min p.i.)	Heart (60 min p.i.)	Heart/Blood Counts/Gram Ratio (60 min p.i.)	Heart/Liver Counts/Gram Ratio (60 min p.i.)	Liver (60 min p.i.)
CCOCCP(CCOCC)CCP(CCOCC)CCOCC [Compound 1, (EtOC2 H4)2 P--C2 H4 --P(C2 H4 OEt)2]	2.25 % Injected dose/organ	1.66 % Injected dose/organ	10.5	1.52	14.1 % Injected dose/organ	0.28 % Injected dose/organ	1.68 % Injected dose/organ	86.4	14.4	1.62 % Injected dose/organ
COCCP(CCOC)CCP(CCOC)CCOC [Compound 2]	19.85 % Injected dose/organ	0.66 % Injected dose/organ	0.44	1.57	5.90 % Injected dose/organ	0.54 % Injected dose/organ	0.17 % Injected dose/organ	5.4	1.17	2.37 % Injected dose/organ
CCOCCCP(CCCOCC)CCP(CCCOCC)CCCOCC [Compound 4]	7.46 % Injected dose/organ	1.00 % Injected dose/organ	1.96	0.81	18.8 % Injected dose/organ	0.73 % Injected dose/organ	0.96 % Injected dose/organ	20.0	2.13	6.96 % Injected dose/organ
CCOCP(CCP(COCC)COCC)COCC [Compound 5]	12.4 % Injected dose/organ	0.54 % Injected dose/organ	0.68	0.20	33.1 % Injected dose/organ	1.63 % Injected dose/organ	0.27 % Injected dose/organ	2.6	0.37	8.85 % Injected dose/organ
CCOC=CP(C=COCC)CCP(C=COCC)C=COCC [Compound 6]	15.6 % Injected dose/organ	0.58 % Injected dose/organ	0.61	0.18	44.3 % Injected dose/organ	3.26 % Injected dose/organ	0.46 % Injected dose/organ	2.2	0.19	30.6 % Injected dose/organ
